Experimental data reported in patent US10144742B2 (Millennium Pharmaceuticals, Inc., priority 2014, dated 2018).

Assays:
hNAMPT protein = hNAMPT protein (Homo sapiens (Human), UniProt P43490); experiment: NAMPT enzyme assay (TR-FRET/HTRF, BodiPY ligand, anti 6His-Tb); assay type: binding; conditions: for IC50: NAMPT IC50 range class, read-out: IC50; for inhibition at 1 µM: compound concentration 1 μM, read-out: Percent Inhibition
Outline: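 TR-FRET binding assay in which His-tagged human NAMPT with anti-6His-Tb is displaced by compound from a BodiPY ligand, incubated 1 h at rt in the dark. Excitation was at 320 nm, with the 520/486 nm emission ratio read. IC50 was fitted from inhibition relative to DMSO controls.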

PC3 cells = experiment: PC3 growth inhibition (Cell-titer glo, 72 hours); assay type: cell-based; conditions: Homo sapiens, PC-3; compound concentration 1.667 μM; PC3 cells, 72 hours, Cell-titer glo; read-out: Percent Inhibition (PC3 growth inhibition)
Outline: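 PC3 cells in RPMI1640 seeded overnight at 37 °C, 5% CO2, then exposed to compound diluted in AIM serum-free medium for 72 h. Viability by CellTiter-Glo luminescence vs DMSO controls; single-concentration % remaining viability (1 μM or 1.667 μM), or GI50/LD50 from curves.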

Sequence of hNAMPT protein (P43490 whole entry): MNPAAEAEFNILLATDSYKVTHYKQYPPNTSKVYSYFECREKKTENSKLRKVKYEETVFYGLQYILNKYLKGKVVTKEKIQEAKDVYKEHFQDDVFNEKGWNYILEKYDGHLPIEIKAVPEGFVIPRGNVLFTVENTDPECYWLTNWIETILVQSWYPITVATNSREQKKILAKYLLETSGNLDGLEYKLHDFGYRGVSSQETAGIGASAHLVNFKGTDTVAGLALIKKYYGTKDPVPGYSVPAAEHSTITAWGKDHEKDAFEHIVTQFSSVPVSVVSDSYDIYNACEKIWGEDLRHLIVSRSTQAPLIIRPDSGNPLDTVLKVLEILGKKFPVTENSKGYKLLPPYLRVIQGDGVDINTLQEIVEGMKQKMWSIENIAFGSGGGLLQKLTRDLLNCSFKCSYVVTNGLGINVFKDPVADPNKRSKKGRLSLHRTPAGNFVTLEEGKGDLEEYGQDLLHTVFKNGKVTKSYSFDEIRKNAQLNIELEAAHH

Structure (SMILES): O=C(NCCCc1ncc[nH]1)c1ccc2nc(OCc3ccc(Cl)cc3)c(-c3ccc(F)cc3)nc2c1 [Compound I-364, 2-[(4-chlorobenzyl)oxy]-3-(4-fluorophenyl)-N-[3-(1H-imidazol-2-yl)propyl]quinoxaline-6-carboxamide]
- IC50 (hNAMPT protein): 100 to 500 nM
- inhibition at 1 µM (hNAMPT protein): 73%
- inhibition at 1.667 µM (PC3 cells): 4%

Structure (SMILES): Cc1ccc(Cl)c(-c2nc3cc(C(=O)NCCCc4ncc[nH]4)ccc3nc2-c2ccc(F)cc2)c1 [Compound I-365, 3-(2-chloro-5-methylphenyl)-2-(4-fluorophenyl)-N-[3-(1H-imidazol-2-yl)propyl]quinoxaline-6-carboxamide]
- IC50 (hNAMPT protein): < 100 nM
- inhibition at 1 µM (hNAMPT protein): 97%
- inhibition at 1.667 µM (PC3 cells): 1%

Structure (SMILES): O=C(NCCCc1ncc[nH]1)c1ccc2nc(C3CCOCC3)c(-c3ccc(F)cc3)nc2c1 [Compound I-366, 3-(4-fluorophenyl)-N-[3-(1H-imidazol-2-yl)propyl]-2-(tetrahydro-2H-pyran-4-yl)quinoxaline-6-carboxamide]
- IC50 (hNAMPT protein): 500 to 1000 nM
- inhibition at 1 µM (hNAMPT protein): 53%
- inhibition at 1.667 µM (PC3 cells): 1%

Structure (SMILES): CC(C)Oc1nc2ccc(C(=O)NCc3ccc4nccn4c3)cc2nc1-c1ccc(F)c(F)c1 [Compound I-367, 3-(3,4-Difluorophenyl)-N-(imidazo[1,2-a]pyridin-6-ylmethyl)-2-isopropoxyquinoxaline-6-carboxamide]
- IC50 (hNAMPT protein): 500 to 1000 nM
- inhibition at 1 µM (hNAMPT protein): 50%
- inhibition at 1.667 µM (PC3 cells): 0%

Structure (SMILES): O=C(NCCCc1ncc[nH]1)c1ccc2nc(-c3ccc(F)cc3)c(-c3ccc(F)s3)nc2c1 [Compound I-368, 2-(4-fluorophenyl)-3-(5-fluoro-2-thienyl)-N-[3-(1H-imidazol-2-yl)propyl]quinoxaline-6-carboxamide]
- IC50 (hNAMPT protein): < 100 nM
- inhibition at 1 µM (hNAMPT protein): > 99%
- inhibition at 1.667 µM (PC3 cells): 1%

Structure (SMILES): O=C(NCCCc1ncc[nH]1)c1ccc2nc(-c3ccc(F)cc3)c(-c3ccc(Cl)c(C(F)(F)F)c3)nc2c1 [Compound I-369, 3-[4-chloro-3-(trifluoromethyl)phenyl]-2-(4-fluorophenyl)-N-[3-(1H-imidazol-2-yl)propyl]quinoxaline-6-carboxamide]
- IC50 (hNAMPT protein): < 100 nM
- inhibition at 1 µM (hNAMPT protein): 93%
- inhibition at 1.667 µM (PC3 cells): 2%

Structure (SMILES): CC(=O)c1ccc(-c2nc3cc(C(=O)NCCCc4ncc[nH]4)ccc3nc2-c2ccc(F)cc2)s1 [Compound I-370, 3-(5-acetyl-2-thienyl)-2-(4-fluorophenyl)-N-[3-(1H-imidazol-2-yl)propyl]quinoxaline-6-carboxamide]
- IC50 (hNAMPT protein): 500 to 1000 nM
- inhibition at 1 µM (hNAMPT protein): 64%
- inhibition at 1.667 µM (PC3 cells): 3%

Structure (SMILES): CCCOc1nc2ccc(C(=O)NCCCc3ncc[nH]3)cc2nc1-c1ccc(F)cc1 [Compound I-371, 3-(4-fluorophenyl)-N-[3-(1H-imidazol-2-yl)propyl]-2-propoxyquinoxaline-6-carboxamide]
- IC50 (hNAMPT protein): < 100 nM
- inhibition at 1 µM (hNAMPT protein): 97%
- inhibition at 1.667 µM (PC3 cells): 3%

Structure (SMILES): O=C(NCCCc1ncc[nH]1)c1ccc2nc(O[C@@H]3CCOC3)c(-c3ccc(F)cc3)nc2c1 [Compound I-372, 3-(4-fluorophenyl)-N-[3-(1H-imidazol-2-yl)propyl]-2-[(3R)-tetrahydrofuran-3-yloxy]quinoxaline-6-carboxamide]
- IC50 (hNAMPT protein): < 100 nM
- inhibition at 1 µM (hNAMPT protein): > 99%
- inhibition at 1.667 µM (PC3 cells): 2%

Structure (SMILES): O=C(NCCCc1ncc[nH]1)c1ccc2nc(-c3ccc(F)cc3)c(-c3ccc(F)cc3F)nc2c1 [Compound I-373, 3-(2,4-difluorophenyl)-2-(4-fluorophenyl)-N-[3-(1H-imidazol-2-yl)propyl]quinoxaline-6-carboxamide]
- IC50 (hNAMPT protein): 100 to 500 nM
- inhibition at 1 µM (hNAMPT protein): 84%
- inhibition at 1.667 µM (PC3 cells): 2%

Structure (SMILES): O=C(NCCCc1ncc[nH]1)c1ccc2nc(-n3ccnn3)c(-c3ccc(F)cc3)nc2c1 [Compound I-374, 3-(4-fluorophenyl)-N-[3-(1H-imidazol-2-yl)propyl]-2-(1H-1,2,3-triazol-1-yl)quinoxaline-6-carboxamide]
- IC50 (hNAMPT protein): 100 to 500 nM
- inhibition at 1 µM (hNAMPT protein): 75%
- inhibition at 1.667 µM (PC3 cells): 3%

Structure (SMILES): CC(C)Sc1nc2ccc(C(=O)NCCCc3ncc[nH]3)cc2nc1-c1ccc(F)cc1 [Compound I-375, 3-(4-Fluorophenyl)-N-[3-(1H-imidazol-2-yl)propyl]-2-(isopropylsulfanyl)quinoxaline-6-carboxamide]
- IC50 (hNAMPT protein): 100 to 500 nM
- inhibition at 1 µM (hNAMPT protein): 80%
- inhibition at 1.667 µM (PC3 cells): 2%

Structure (SMILES): O=C(NCCc1ncc[nH]1)c1ccc2nc(-c3ccc(F)cc3)c(-c3cccc(Cl)c3)nc2c1 [Compound I-376, 3-(3-chlorophenyl)-2-(4-fluorophenyl)-N-[2-(1H-imidazol-2-yl)ethyl]quinoxaline-6-carboxamide]
- IC50 (hNAMPT protein): 500 to 1000 nM
- inhibition at 1 µM (hNAMPT protein): 30%
- inhibition at 1.667 µM (PC3 cells): 52%

Structure (SMILES): N#Cc1cc(-c2nc3cc(C(=O)NCCCc4ncc[nH]4)ccc3nc2-c2ccc(F)cc2)ccc1Cl [Compound I-377, 3-(4-chloro-3-cyanophenyl)-2-(4-fluorophenyl)-N-[3-(1H-imidazol-2-yl)propyl]quinoxaline-6-carboxamide]
- IC50 (hNAMPT protein): 100 to 500 nM
- inhibition at 1 µM (hNAMPT protein): 85%
- inhibition at 1.667 µM (PC3 cells): 2%

Structure (SMILES): O=C(NCCCc1ncc[nH]1)c1ccc2nc(OCC3CC4(COC4)C3)c(-c3ccc(F)cc3)nc2c1 [Compound I-378, 3-(4-fluorophenyl)-N-[3-(1H-imidazol-2-yl)propyl]-2-(2-oxaspiro[3.3]hept-6-ylmethoxy)quinoxaline-6-carboxamide]
- IC50 (hNAMPT protein): < 100 nM
- inhibition at 1 µM (hNAMPT protein): > 99%
- inhibition at 1.667 µM (PC3 cells): 2%

Structure (SMILES): O=C(NCCCc1ncc[nH]1)c1ccc2nc(OCC3CCOC3)c(-c3ccc(F)cc3)nc2c1 (stereo not drawn) [Compound I-379, 3-(4-fluorophenyl)-N-[3-(1H-imidazol-2-yl)propyl]-2-(tetrahydrofuran-3-ylmethoxy)quinoxaline-6-carboxamide]
- IC50 (hNAMPT protein): < 100 nM
- inhibition at 1 µM (hNAMPT protein): 100%
- inhibition at 1.667 µM (PC3 cells): 2%

Structure (SMILES): CC(C)Oc1nc2ccc(C(=O)NCCCc3cn[nH]c3)cc2nc1-c1ccc(F)cc1 [Compound I-380, 3-(4-Fluorophenyl)-2-isopropoxy-N-[3-(1H-pyrazol-4-yl)propyl]quinoxaline-6-carboxamide]
- IC50 (hNAMPT protein): 500 to 1000 nM
- inhibition at 1 µM (hNAMPT protein): 55%
- inhibition at 1.667 µM (PC3 cells): 2%

Structure (SMILES): O=C(NCCCc1ncc[nH]1)c1ccc2nc(-c3ccc(F)cc3)c(-c3cc(C(F)(F)F)ccc3Cl)nc2c1 [Compound I-381, 3-[2-chloro-5-(trifluoromethyl)phenyl]-2-(4-fluorophenyl)-N-[3-(1H-imidazol-2-yl)propyl]quinoxaline-6-carboxamide]
- IC50 (hNAMPT protein): < 100 nM
- inhibition at 1 µM (hNAMPT protein): 96%
- inhibition at 1.667 µM (PC3 cells): 2%

Structure (SMILES): CCc1ccc(-c2nc3cc(C(=O)NCCCc4ncc[nH]4)ccc3nc2-c2ccc(F)cc2)cc1 [Compound I-382, 3-(4-ethylphenyl)-2-(4-fluorophenyl)-N-[3-(1H-imidazol-2-yl)propyl]quinoxaline-6-carboxamide]
- IC50 (hNAMPT protein): 500 to 1000 nM
- inhibition at 1 µM (hNAMPT protein): 55%
- inhibition at 1.667 µM (PC3 cells): 3%

Structure (SMILES): C[C@@H]1CN(c2nc3ccc(C(=O)NCCCc4ncc[nH]4)cc3nc2-c2ccc(F)cc2)C[C@H](C)O1 [Compound I-383, 2-[cis-2,6-dimethylmorpholin-4-yl]-3-(4-fluorophenyl)-N-[3-(1H-imidazol-2-yl)propyl]quinoxaline-6-carboxamide]
- IC50 (hNAMPT protein): < 100 nM
- inhibition at 1 µM (hNAMPT protein): 99%
- inhibition at 1.667 µM (PC3 cells): 2%

Structure (SMILES): CS(=O)(=O)c1cccc(-c2nc3cc(C(=O)NCCCc4ncc[nH]4)ccc3nc2-c2ccc(F)cc2)c1 [Compound I-384, 2-(4-fluorophenyl)-N-[3-(1H-imidazol-2-yl)propyl]-3-[3-(methylsulfonyl)phenyl]quinoxaline-6-carboxamide]
- IC50 (hNAMPT protein): 100 to 500 nM
- inhibition at 1 µM (hNAMPT protein): 84%
- inhibition at 1.667 µM (PC3 cells): 2%

Structure (SMILES): CC(C)Oc1nc2ccc(C(=O)NCCCc3ncc[nH]3)cc2nc1-c1cccs1 [Compound I-385, N-[3-(1H-imidazol-2-yl)propyl]-2-isopropoxy-3-(2-thienyl)quinoxaline-6-carboxamide]
- IC50 (hNAMPT protein): < 100 nM
- inhibition at 1 µM (hNAMPT protein): > 99%
- inhibition at 1.667 µM (PC3 cells): 2%

Structure (SMILES): Cn1ccc2cc(-c3nc4cc(C(=O)NCCCc5ncc[nH]5)ccc4nc3-c3ccc(F)cc3)ccc21 [Compound I-386, 2-(4-fluorophenyl)-N-[3-(1H-imidazol-2-yl)propyl]-3-(1-methyl-1H-indol-5-yl)quinoxaline-6-carboxamide]
- IC50 (hNAMPT protein): 100 to 500 nM
- inhibition at 1 µM (hNAMPT protein): 90%
- inhibition at 1.667 µM (PC3 cells): 2%

Structure (SMILES): O=C(NCCCc1nnc[nH]1)c1ccc2nc(-c3ccc(F)cc3)c(-c3ccc(F)cc3)nc2c1 [Compound I-387, 2,3-bis(4-fluorophenyl)-N-[3-(4H-1,2,4-triazol-3-yl)propyl]quinoxaline-6-carboxamide]
- IC50 (hNAMPT protein): 500 to 1000 nM
- inhibition at 1 µM (hNAMPT protein): 61%
- inhibition at 1.667 µM (PC3 cells): 5%

Structure (SMILES): N#Cc1cc(-c2nc3cc(C(=O)NCCCc4ncc[nH]4)ccc3nc2-c2ccc(F)cc2)ccc1F [Compound I-388, 3-(3-cyano-4-fluorophenyl)-2-(4-fluorophenyl)-N-[3-(1H-imidazol-2-yl)propyl]quinoxaline-6-carboxamide]
- IC50 (hNAMPT protein): 100 to 500 nM
- inhibition at 1 µM (hNAMPT protein): 81%
- inhibition at 1.667 µM (PC3 cells): 3%

Structure (SMILES): O=C(NCCCc1ncc[nH]1)c1ccc2nc(-n3ccc4cnccc43)c(-c3ccc(F)cc3)nc2c1 [Compound I-389, 3-(4-fluorophenyl)-N-[3-(1H-imidazol-2-yl)propyl]-2-(1H-pyrrolo[3,2-c]pyridin-1-yl)quinoxaline-6-carboxamide]
- IC50 (hNAMPT protein): < 100 nM
- inhibition at 1 µM (hNAMPT protein): 93%
- inhibition at 1.667 µM (PC3 cells): 2%

Structure (SMILES): O=C(NCCCc1ncc[nH]1)c1ccc2nc(OCCc3cnoc3)c(-c3ccc(F)cc3)nc2c1 [Compound I-390, 3-(4-fluorophenyl)-N-[3-(1H-imidazol-2-yl)propyl]-2-[2-(isoxazol-4-yl)ethoxy]quinoxaline-6-carboxamide]
- IC50 (hNAMPT protein): < 100 nM
- inhibition at 1 µM (hNAMPT protein): 99%
- inhibition at 1.667 µM (PC3 cells): 2%
